Measurements: ChEMBL document CHEMBL1201862, “PubChem BioAssay data set” (2004)
Activity calls are given as the source filed them.

Tests used:
[1] = molecular target: T1, Replicative DNA helicase DnaB (Mycobacterium tuberculosis, UniProt P9WMR3); experiment: DnaB intein splicing inhibitors, dose response, biochemical, cell-free fluorescence (AID 449749); type: functional
T1 sequence (P9WMR3 whole entry): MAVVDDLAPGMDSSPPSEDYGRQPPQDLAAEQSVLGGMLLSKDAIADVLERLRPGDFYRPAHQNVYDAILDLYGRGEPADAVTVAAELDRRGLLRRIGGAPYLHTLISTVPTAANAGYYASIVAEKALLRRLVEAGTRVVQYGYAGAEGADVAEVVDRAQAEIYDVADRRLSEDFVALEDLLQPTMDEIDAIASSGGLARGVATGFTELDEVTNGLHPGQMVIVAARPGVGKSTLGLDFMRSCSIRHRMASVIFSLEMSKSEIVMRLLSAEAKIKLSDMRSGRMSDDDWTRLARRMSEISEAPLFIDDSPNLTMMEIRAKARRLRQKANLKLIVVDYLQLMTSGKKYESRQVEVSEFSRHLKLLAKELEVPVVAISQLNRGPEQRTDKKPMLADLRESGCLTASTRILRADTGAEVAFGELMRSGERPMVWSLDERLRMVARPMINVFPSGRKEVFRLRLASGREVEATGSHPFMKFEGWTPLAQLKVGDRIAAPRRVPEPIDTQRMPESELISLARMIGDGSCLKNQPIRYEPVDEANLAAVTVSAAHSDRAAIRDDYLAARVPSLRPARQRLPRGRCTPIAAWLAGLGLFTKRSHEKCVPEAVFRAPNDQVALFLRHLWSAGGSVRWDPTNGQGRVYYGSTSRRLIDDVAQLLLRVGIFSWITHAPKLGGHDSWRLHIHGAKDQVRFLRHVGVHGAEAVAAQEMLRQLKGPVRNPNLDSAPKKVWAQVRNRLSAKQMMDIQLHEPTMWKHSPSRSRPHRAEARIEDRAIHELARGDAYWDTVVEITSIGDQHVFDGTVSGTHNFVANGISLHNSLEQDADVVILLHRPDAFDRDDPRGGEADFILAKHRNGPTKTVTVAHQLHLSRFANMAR

[2] = molecular target: T2, Streptokinase A (Streptococcus pyogenes serotype M1, UniProt P10520); experiment: viability-normalized secreted streptokinase activity reduction – plasminogen activation absorbance, OD405, dose response (AID 1914); type: functional, Streptococcus pyogenes M1 GAS;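 note: secreted streptokinase activity via plasminogen activation per viability signal from cell pellet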
T2 sequence (P10520 whole entry): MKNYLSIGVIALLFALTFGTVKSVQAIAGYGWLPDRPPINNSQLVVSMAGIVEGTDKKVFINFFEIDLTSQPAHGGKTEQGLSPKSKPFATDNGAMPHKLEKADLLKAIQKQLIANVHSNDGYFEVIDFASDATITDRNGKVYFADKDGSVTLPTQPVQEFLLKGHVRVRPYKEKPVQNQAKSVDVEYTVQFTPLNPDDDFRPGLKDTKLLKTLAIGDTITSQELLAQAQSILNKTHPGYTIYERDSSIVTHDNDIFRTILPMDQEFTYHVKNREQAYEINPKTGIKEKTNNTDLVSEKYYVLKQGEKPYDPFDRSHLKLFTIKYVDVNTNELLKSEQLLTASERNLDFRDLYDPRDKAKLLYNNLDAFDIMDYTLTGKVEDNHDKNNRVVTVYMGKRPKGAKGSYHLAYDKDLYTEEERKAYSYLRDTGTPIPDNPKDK

[3] = tested on: INS1; experiment: INS-1E survival protection against cytokine death – cell-based, luminescence, retest, dose response (AID 449756); type: functional; conditions: Rattus norvegicus;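 note: cell death triggered by IL-1 beta plus TNF-alpha plus IFN-gamma mixture; protective hits raise ATP signal compared with cytokine alone wells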
[4] = HIV-1 AD8 envelope cell-cell fusion blockers – cherry-pick, dose response (AID 652062); type: functional, cell-based;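 note: luciferase signal from cell-cell fusion driven by HIV-1 clade B AD8 Env; potency is for inhibitors of fusion seen as a drop in luminescence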
[5] = tested on: Streptococcus; experiment: GAS UMAA2166 growth inhibition – luminescence, BacTiterGlo, counter-screen for streptokinase expression inhibitor project, dose response (AID 1915); type: functional, organism-based;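 note: potency for reduction of bacterial viability or growth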
[6] = NIH3T3 cell viability loss – ATP luminescence, mouse fibroblasts, counter-screen, dose response (AID 2010); type: functional, cell-based;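 note: cells exposed to compound for about 90 hours before reading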
[7] = molecular target: Nonstructural protein 1 (Influenza A virus, UniProt Q194T2); type: functional, Influenza A virus (A/California/07/2009(H1N1))
Nonstructural protein 1, sequence (Q194T2 whole entry, the tested form may be a part): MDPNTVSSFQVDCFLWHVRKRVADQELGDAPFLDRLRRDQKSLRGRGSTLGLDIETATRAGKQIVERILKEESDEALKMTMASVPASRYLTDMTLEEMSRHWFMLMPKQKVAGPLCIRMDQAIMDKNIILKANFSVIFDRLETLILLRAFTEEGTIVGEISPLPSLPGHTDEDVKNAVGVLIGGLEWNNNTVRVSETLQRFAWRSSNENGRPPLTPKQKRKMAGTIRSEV

[8] = viability loss in CEM21 cells – cell-based, CellTiter-Glo luminescence, cherry-picked, cytotoxicity control for viral fusion inhibitor project, dose response (AID 652042); type: functional;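 note: potency for signal decrease meaning cytotoxicity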
[9] = molecular target: Mu-type opioid receptor (Homo sapiens, UniProt P35372); experiment: (§1) Counterscreen for agonists of heterodimerization of the mu 1 (OPRM1) and delta 1 (OPRD1) opioid receptors: Luminescence-based cell-based high throughput dose response assay to identify agonists of OPRM1 homodimerization.; type: functional
Mu-type opioid receptor, sequence (P35372 whole entry, the tested form may be a part): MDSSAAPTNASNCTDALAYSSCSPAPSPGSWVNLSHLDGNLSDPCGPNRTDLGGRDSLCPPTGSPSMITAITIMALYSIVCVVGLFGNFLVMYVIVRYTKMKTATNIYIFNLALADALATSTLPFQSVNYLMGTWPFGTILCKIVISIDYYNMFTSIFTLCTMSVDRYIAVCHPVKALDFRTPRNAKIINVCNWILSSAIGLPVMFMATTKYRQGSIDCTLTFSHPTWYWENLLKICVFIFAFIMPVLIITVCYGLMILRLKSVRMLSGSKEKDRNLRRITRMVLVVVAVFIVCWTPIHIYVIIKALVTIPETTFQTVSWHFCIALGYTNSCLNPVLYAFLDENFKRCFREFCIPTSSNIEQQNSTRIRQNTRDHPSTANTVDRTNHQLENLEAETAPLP

[10] = blockers of HIV-1 ZM109 envelope-driven cell-cell fusion – HeLa effector, CEM target cells, luciferase, cherry-pick, dose response (AID 652058); type: functional, cell-based;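 note: luciferase signal from HIV-1 Env mediated cell-cell fusion of effector and target cells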
[11] = blockers of HIV-1 envelope-mediated cell-cell fusion – cherry-pick, dose response (AID 652057); type: functional, cell-based
[12] = tested on: Streptococcus sp. 'group A'; experiment: Streptococcus pyogenes SK(-)GAS viability under kanamycin – luminescence, BacTiterGlo, confirmation, counter-screen for streptokinase expression inhibitor project, dose response (AID 1900); type: functional, organism-based
[13] = tested on: CHO; experiment: CHO cell viability loss, potency – luminescence, cytotoxicity control for TLR9-MyD88 binding inhibitor project, dose response (AID 588339); type: functional, cell-based, hamster; conditions: Cricetulus griseus;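 note: CHO cells stably coexpressing TLR9 and MyD88 fusions from primary screen; compound exposure lasted 48 hours before viability readout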
[14] = molecular target: G-protein coupled receptor 55 (Homo sapiens, UniProt Q9Y2T6); experiment: selective activators of receptor GPR55 – imaging, U2OS cells, beta-arrestin-GFP redistribution, primary screen (AID 1961); type: functional
G-protein coupled receptor 55, sequence (Q9Y2T6 whole entry): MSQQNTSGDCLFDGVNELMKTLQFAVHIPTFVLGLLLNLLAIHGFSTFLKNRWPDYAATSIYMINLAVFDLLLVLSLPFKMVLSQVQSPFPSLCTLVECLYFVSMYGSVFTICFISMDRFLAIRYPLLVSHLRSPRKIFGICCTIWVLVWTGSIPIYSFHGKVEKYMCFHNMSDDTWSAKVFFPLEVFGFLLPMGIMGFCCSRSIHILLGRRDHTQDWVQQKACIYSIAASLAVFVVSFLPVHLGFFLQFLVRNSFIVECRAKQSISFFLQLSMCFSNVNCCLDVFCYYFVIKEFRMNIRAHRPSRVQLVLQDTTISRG

[15] = Trypanosoma cruzi growth suppression in host cells – NIH3T3 host cells, beta-gal luminescence, confirmation (AID 2044); type: functional, cell-based;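 note: intracellular parasites grown in NIH/3T3 mouse fibroblasts as host cells; luminescent beta-galactosidase reporter signal from transgenic T. cruzi replicating inside host cells; inhibitors lower the luminescence signal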
[16] = molecular target: Delta-type opioid receptor (Homo sapiens, UniProt P41143); experiment: as §1, with “of OPRD1” for “of OPRM1”, “homodimerization. [Related pubchem assays (depositor defined):AID504326, AID504355, AID504692, AID504904, AID504905]” for “homodimerization.”; type: functional
Delta-type opioid receptor, sequence (P41143 whole entry): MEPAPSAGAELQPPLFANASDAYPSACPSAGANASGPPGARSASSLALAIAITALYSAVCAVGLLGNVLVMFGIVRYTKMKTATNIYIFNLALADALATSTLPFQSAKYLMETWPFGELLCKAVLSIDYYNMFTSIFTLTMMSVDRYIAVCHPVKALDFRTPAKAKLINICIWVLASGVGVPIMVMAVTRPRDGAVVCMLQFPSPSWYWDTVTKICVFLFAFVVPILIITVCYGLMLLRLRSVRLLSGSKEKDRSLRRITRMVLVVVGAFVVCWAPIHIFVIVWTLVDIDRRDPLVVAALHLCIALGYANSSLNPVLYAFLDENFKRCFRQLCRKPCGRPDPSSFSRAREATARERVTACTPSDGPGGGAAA

[17] = non-specific 3'UTR reporter inhibition in Clone20-Shn3RL – cell-based, Renilla luciferase, cherry-picked, counter-screen for Shn3 inhibitor project, dose response (AID 624133); type: functional
[18] = molecular target: T3, Protein RecA (Mycobacterium tuberculosis, UniProt P9WHJ3); experiment: Fluorescence Cell-Free Homogeneous Dose Retest to Identify Inhibitors of RecA-Intein Splicing Activity. [Related pubchem assays (depositor defined):AID2097, AID2223, AID489010, AID492950]; type: functional
T3 sequence (P9WHJ3 whole entry): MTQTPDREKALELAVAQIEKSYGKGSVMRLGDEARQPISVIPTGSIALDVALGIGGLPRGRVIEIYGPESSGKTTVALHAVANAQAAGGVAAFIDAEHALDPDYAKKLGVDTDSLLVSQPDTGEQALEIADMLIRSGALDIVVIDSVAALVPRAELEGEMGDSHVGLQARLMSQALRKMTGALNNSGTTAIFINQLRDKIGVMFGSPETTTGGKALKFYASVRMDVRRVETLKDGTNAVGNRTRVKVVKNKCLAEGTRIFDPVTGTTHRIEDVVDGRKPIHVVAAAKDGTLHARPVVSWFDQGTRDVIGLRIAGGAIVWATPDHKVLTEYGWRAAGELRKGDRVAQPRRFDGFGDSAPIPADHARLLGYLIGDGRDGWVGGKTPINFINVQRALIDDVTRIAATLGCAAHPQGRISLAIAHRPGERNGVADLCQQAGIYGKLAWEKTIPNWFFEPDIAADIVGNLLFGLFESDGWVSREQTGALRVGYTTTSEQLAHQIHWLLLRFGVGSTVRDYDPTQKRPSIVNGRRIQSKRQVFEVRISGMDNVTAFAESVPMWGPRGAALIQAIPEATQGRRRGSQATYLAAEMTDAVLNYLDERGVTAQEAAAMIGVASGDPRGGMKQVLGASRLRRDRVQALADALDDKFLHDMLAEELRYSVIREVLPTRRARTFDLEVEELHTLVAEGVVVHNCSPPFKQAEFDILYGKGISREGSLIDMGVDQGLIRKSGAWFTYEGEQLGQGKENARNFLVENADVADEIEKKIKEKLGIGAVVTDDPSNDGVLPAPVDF

[19] = loss of viability in HepG2 cells – cell-based, CellTiter-Glo, cherry-picked, cytotoxicity control for Shn3 inhibitor project, dose response (AID 624134); type: functional
[20] = tested on: HEK293; experiment: EBV LMP1 TES2 canonical NF-kB signalling blockers – cell-based, HEK293, luciferase, cherry-pick, dose response (AID 588343); type: functional; conditions: Homo sapiens
[21] = reduction of Shn3 3'UTR-driven luciferase in osteoblasts – cell-based, Clone20 osteoblasts, firefly luciferase, cherry-picked, dose response (AID 624132); type: functional;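 note: firefly luciferase luminescence from reporter carrying the Shn3 3'UTR in osteoblasts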
[22] = molecular target: Beta Lactamase (Pseudomonas aeruginosa, UniProt Q932Y6); experiment: BLA reporter interference, concentration series – BLA reporter cells, FRET fluorescence, artefact control for TLR9-MyD88 binding inhibitor project, dose response (AID 588341); type: cell-based;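 note: cell based assay in CHO-K1 cells stably expressing beta-lactamase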
Beta Lactamase, sequence (Q932Y6 whole entry): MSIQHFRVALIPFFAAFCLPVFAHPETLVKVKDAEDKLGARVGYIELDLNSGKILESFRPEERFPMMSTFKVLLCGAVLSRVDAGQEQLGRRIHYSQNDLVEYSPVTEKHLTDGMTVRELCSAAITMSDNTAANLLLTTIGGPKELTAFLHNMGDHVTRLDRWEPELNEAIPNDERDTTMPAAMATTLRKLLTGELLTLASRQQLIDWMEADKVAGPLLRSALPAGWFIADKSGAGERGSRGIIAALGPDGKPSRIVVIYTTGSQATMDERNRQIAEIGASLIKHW

[23] = molecular target: 5-hydroxytryptamine receptor 5A (Homo sapiens, UniProt P47898); experiment: Counterscreen for agonists of OPRM1-OPRD1 heterodimerization: luminescence-based cell-based high throughput dose response assay to identify agonists of 5-hydroxytryptamine (serotonin) 5A receptor (HTR5A). [Related pubchem assays (depositor defined):AID504326, AID504355, AID504692, AID504904, AID504905]; type: functional
5-hydroxytryptamine receptor 5A, sequence (P47898 whole entry): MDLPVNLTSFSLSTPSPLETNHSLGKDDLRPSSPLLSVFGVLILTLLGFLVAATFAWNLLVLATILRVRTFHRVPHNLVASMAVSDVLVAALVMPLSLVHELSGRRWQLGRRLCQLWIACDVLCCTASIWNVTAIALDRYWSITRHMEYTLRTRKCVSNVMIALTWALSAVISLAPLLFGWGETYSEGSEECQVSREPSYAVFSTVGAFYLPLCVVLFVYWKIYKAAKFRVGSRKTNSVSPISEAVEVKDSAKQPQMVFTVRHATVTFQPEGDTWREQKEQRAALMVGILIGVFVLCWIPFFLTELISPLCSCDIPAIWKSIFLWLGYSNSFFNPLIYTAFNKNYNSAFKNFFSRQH

With CCc1ccc(Nc2n[n+](-c3ccccc3)c(-c3c(Cl)cccc3Cl)s2)cc1 the AC50 [1] was 3.71 µM (active), the EC50 [2] was 7.4 µM (active) and the AC50 [3] was 3.65 µM (active). For the same molecule, the AC50 [4] was 5.91 µM (active), the EC50 [5] was 10.3 µM (active) and the EC50 [6] was 5.53 µM (active). For the same molecule, the IC50 [7] was 24.4 µM (active), the AC50 [8] was 10.8 µM (active) and the EC50 [9] was > 92.5 µM (inactive). The AC50 [10] was 23.3 µM (active), the AC50 [11] was 15.5 µM (active) and the EC50 [12] was 3.58 µM (active). The IC50 [13] was 6.79 µM (active), the EC50 [14] was > 32 µM (inactive) and the EC50 [15] was 1.35 µM (active). The EC50 [16] was 14.2 µM (inactive), the AC50 [17] was 19.4 µM (active) and the EC50 [18] was 9.38 µM (active). The AC50 [19] was 14.6 µM (active), the AC50 [20] was 47.5 µM (active) and the AC50 [21] was 5.4 µM (active). The IC50 [22] was 3.12 µM (active) and the EC50 [23] was > 92.5 µM (inactive).
